Read-outs that look alike come from different tables or passages of the source.
Columns and labels:
[1] = molecular target: human pancreatic secreted PLA2 (hps PLA2) (Homo sapiens, UniProt P04054); details: reported literature data; cited from earlier work
[2] = molecular target: porcine pancreatic secreted PLA2 (pps PLA2) (Sus scrofa, UniProt P00592); details: reported literature data; cited from earlier work
Caco-2 cells [3] = system: Caco-2 cells
Stability at low pH = assay type: physicochemical
mouse PLA2 IB enzyme = mouse PLA2 IB enzyme (Mus musculus, UniProt Q9Z0Y2); details: pyrene substrate release from vesicles (Singer, Ghomashchi et al. 2002); read-out: IC50 versus the mouse PLA2 IB enzyme; cited from earlier work
[4] = assay type: in vivo, mice; details: 10 weeks
human PLA2 IB enzyme = human PLA2 IB enzyme (Homo sapiens, UniProt P04054); details: pyrene substrate release from vesicles (Singer, Ghomashchi et al. 2002); read-out: IC50 versus the human PLA2 IB enzyme; cited from earlier work
Caco-2 cells [5] = experiment: Caco-2 permeability study (Example 6B)
[6] = Pharmokinetic study, bioavailability (Example 6C); assay type: in vivo, mice
Procedure: This example characterized ILY-4001 [2-(3-(2-amino-2-oxoacetyl)-1-(biphenyl-2-ylmethyl)-2-methyl-1H-indol-4-yloxy)acetic acid], alternatively referred to herein as methyl indoxam, with respect to activity, as determined by IC50 assay (Example 6A), with respect to cell absorption, as determined by in-vitro Caco-2 assay (Example 6B) and with respect to bioavailability, as determined using in-vivo mice studies (Example 6C).
Bioavailability was calculated as a ratio of AUC-oral/AUC-intravenous (IV). To determine this ratio, a first set of subject animals were given a measured intravenous (IV) dose of ILY-4001, followed by a determination of ILY-4001 levels in the blood at various time points after administration (e.g., 5 minutes through 24 hours). Another second set of animals was similarly dosed using oral administration, with blood levels of ILY-4001 determined at various time points after administration (e.g., 30 minutes through 24 hours). The level of ILY-4001 in systemic circulation were determined by generally accepted methods (for example as described in Evans, G., A Handbook of Bioanalysis and Drug Metabolism. Boca Raton, CRC Press (2004)). Specifically, […]/mass spectrometry/mass spectrometry (LC/MS/MS) analytical methods were used to quantitate plasma concentrations of ILY-4001 after oral and intravenous administration. […]

[7] = assay type: in vivo, mice; details: for body weight gain compared to wild-type control group: week 4 and week 10
[8] = assay type: in vivo, mice; details: low dose 25 mg/kg/day in diet

Sequence of porcine pancreatic secreted PLA2 (pps PLA2) (P00592 23-146): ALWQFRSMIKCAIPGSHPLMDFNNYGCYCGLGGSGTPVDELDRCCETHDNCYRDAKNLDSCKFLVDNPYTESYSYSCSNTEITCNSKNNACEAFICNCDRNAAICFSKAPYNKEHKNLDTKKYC
Sequence of human pancreatic secreted PLA2 (hps PLA2) (P04054 23-148): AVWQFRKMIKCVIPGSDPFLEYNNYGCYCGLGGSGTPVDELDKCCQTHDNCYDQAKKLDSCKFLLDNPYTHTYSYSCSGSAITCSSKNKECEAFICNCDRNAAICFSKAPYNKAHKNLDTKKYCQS
Sequence of human PLA2 IB enzyme (P04054 23-148): as above
Sequence of mouse PLA2 IB enzyme (Q9Z0Y2 23-146): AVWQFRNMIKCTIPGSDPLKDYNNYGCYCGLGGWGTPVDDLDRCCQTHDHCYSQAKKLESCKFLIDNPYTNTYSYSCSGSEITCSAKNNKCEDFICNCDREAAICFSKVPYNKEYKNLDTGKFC

Compound: Cc1c(CC(=O)NN)c2cc(OCCCC(=O)O)ccc2n1Cc1ccccc1
- IC50 (μM) hps PLA2 [1]: no activity
- IC50 (μM) pps PLA2 [2]: no activity

Compound: Cc1c(C(=O)C(N)=O)c2c(CCC(=O)O)cccc2n1Cc1ccccc1
- IC50 [1]: > 100 µM

Compound: Lucifer Yellow
- apparent permeability (Papp) (Caco-2 cells [3]): around 2.82×10^−7+/−0.37×10^−7 cm/s

Compound: Cc1c(C(=O)C(N)=O)c2c(OCC(=O)O)cccc2n1Cc1ccccc1-c1ccccc1 [ILY-4001, 2-(3-(2-amino-2-oxoacetyl)-1-(biphenyl-2-ylmethyl)-2-methyl-1H-indol-4-yloxy)acetic acid]
- stability at low pH (Stability at low pH): stable at low pH
- IC50 (mouse PLA2 IB enzyme): ~150 nM
- plasma level of cholesterol ([4]; high dose 90 mg/kg/day in diet): substantially reduced
- plasma level of triglycerides ([4]; high dose 90 mg/kg/day in diet): substantially reduced
- plasma level of cholesterol ([4]; low dose 25 mg/kg/day in diet): substantially reduced
- plasma level of triglycerides ([4]; low dose 25 mg/kg/day in diet): substantially reduced
- IC50 (human PLA2 IB enzyme): ~200 nM
- apparent permeability (Papp) (Caco-2 cells [5]; 50 ug/ml in apical well, sampled basolateral, Caco-2 monolayer): around 1.66×10^−7 cm/s
- absorption from the GI lumen (Caco-2 cells [5]; based on Caco-2 assays and pharmokinetic studies): relatively low absorption
- bioavailability ([6]; mouse, plasma, oral, 30 mg/kg, read-out: % F (bioavailability)): 28%
- level of non-absorption from the GI tract into systemic circulation ([6]; oral 30 mg/kg): ~72%
- body weight gain modulation relative to PLA2 (−/−) mice ([7]; 25 mg/kg/d (low dose) in diet, ten weeks): comparable to that achieved in the PLA2 (−/−) mice
- body weight gain modulation relative to PLA2 (−/−) mice ([7]; 25 mg/kg/d in diet, four weeks): approaching that achieved in the PLA2 (−/−) mice
- body weight gain compared to wild-type control group ([7]; 25 mg/kg/d in diet): significantly reduced body weight gains
- body weight gain modulation relative to PLA2 (−/−) mice ([7]; 90 mg/kg/d in diet, four weeks): approaching that achieved in the PLA2 (−/−) mice
- body weight gain compared to wild-type control group ([7]; 90 mg/kg/d in diet): significantly reduced body weight gains
- fasting glucose levels ([8]; week four): moderately beneficial effect
- fasting glucose levels ([8]; week ten): a beneficial effect was not observed

Compound: Cc1c(CC(N)=O)c2c(OCC(=O)O)cccc2n1Cc1ccccc1-c1ccccc1
- IC50 [1]: 4.09 µM
- IC50 [2]: 0.014 µM

Compound: Cc1c(C(=O)C(N)=O)c2c(/C=C/C(=O)O)cccc2n1Cc1ccccc1
- IC50 [1]: > 100 µM

Compound: Cc1c(CC(N)=O)c2c(OCC(=O)O)cccc2n1Cc1cccc(Cl)c1
- IC50 [1]: 1.2 µM
- IC50 [2]: 0.02 µM
